{"source": "patent US20210275624A1", "about": "“TREATMENTS FOR IMPROVING OR LESSENING IMPAIRMENT OF MITOCHONDRIAL FUNCTION” (priority 2020, published 2021)", "key": {"[1]": {"test_system": "human RPE cells", "experiment": "Determination of Δψm (JC-1 dye)", "assay_type": "cell-based", "description": "Human donor RPE cells were seeded on collagen-coated 96-well plates, 24-well plates with or without coverslips, 6-well plates (Corning-Costar Incorporated, Corning, N.Y., USA). Except for the Seahorse assay, on day 6 after plating, cells were washed twice with serum-free and phenol red-free MEM (SF-MEM), treated with HQ at a various concentrations in the presence or absence of RSG (0.4 mM) in SF-MEM for various times at 37° C. RSG co-treatment refers to the condition in which cells were treated with RSG in the presence of HQ. Control refers to the condition in which cells were not treated. RPE cells in triplicate wells of 96-well black plates with clear bottoms were washed with SF-MEM, loaded with 10 μM JC-1 dye in SF-MEM for 30 minutes at 37° C. and then washed twice. Cells were then treated with HQ (160 μM) with or without RSG (0.4 mM). A fluorescence plate reader was used to measure the fluorescence at various times to quantify green JC-1 monomer (490-nm excitation, 522-nm emission) and red JC-1 aggregates (535-nm excitation, 590-nm emission)."}, "[2]": {"test_system": "human RPE cells", "experiment": "RNA-seq whole transcriptome analysis", "assay_type": "cell-based", "settings": "4 hours", "description": "RPE cells in sextuplicate wells of a 6-well plate were treated for 4 hours with HQ (250 μM or 300 μM) in the presence or absence of RSG (0.4 mM). Total RNA was extracted using an RNeasy Mini Kit and DNA was removed with TURBO DNA-free kit. RNA quality was measured with a Bioanalyzer (Agilent Genomics, Santa Clara, Calif., USA). RNA-seq libraries were prepared from poly-A enriched messenger RNA and sequenced by GENEWIZ (South […], NJ, USA) to generate approximately 20-30 million paired-end, 150 base-pair reads per sample. RNA-seq FASTQ files were quality-tested with FastQC. Reads were aligned with STAR to human genome (GRCh38.p12) and transcriptome ([…]30) references, followed by read-quantification with featureCounts. Principal component analysis (PCA) was used to visualize the high-dimensional RNA-seq dataset using the top 15 thousand genes that had the highest average counts, as normalized by DESeq2's VST method. […] Enriched biological processes were condensed and visualized with […] with similarity metric set to small and GO term size determined by Uniport Homo Sapiens database; biologically relevant processes were selected and labeled. Six enriched KEGG pathways were selected for visualization of gene expression changes, based on their biological relevance and strength of negative correlation between HQ and RSG co-treatment. Empirical RNA-seq Sample Size Analysis (ERSSA) was used to check whether the six biological replicates used in this study were sufficient for differential expression discovery; analysis was performed with log 2FC cutoff of 0.25 and 50 subsamples at each replicate level."}, "[3]": {"test_system": "human RPE cells", "experiment": "Determination of ROS (CM-H2DCFDA fluorescence)", "assay_type": "cell-based", "settings": "HQ 160 μM vs control", "description": "Human donor RPE cells were seeded on collagen-coated 96-well plates, 24-well plates with or without coverslips, 6-well plates (Corning-Costar Incorporated, Corning, N.Y., USA). Except for the Seahorse assay, on day 6 after plating, cells were washed twice with serum-free and phenol red-free MEM (SF-MEM), treated with HQ at a various concentrations in the presence or absence of RSG (0.4 mM) in SF-MEM for various times at 37° C. RSG co-treatment refers to the condition in which cells were treated with RSG in the presence of HQ. Control refers to the condition in which cells were not treated. RPE cells in triplicate wells of a 96-well black plates with clear bottoms were washed with SF-MEM, loaded with 20 μM CM-H2DCFDA in SF-MEM for 30 minutes at 37° C. and then washed twice. Cells were then treated with HQ (160 μM) in the presence or absence of RSG (0.4 mM). Fluorescence was measured at various times with a fluorescence plate reader (490 nm excitation, 522 nm emission)."}, "[4]": {"test_system": "dog heart failure model", "experiment": "Dog heart failure model (coronary microembolization), ventriculographic and hemodynamic measurements", "assay_type": "in vivo", "settings": "for Left Ventricle Ejection Fraction: n = 3, pretreatment 32; for Cardiac Output, Δ vs pretreatment / Left Ventricle Ejection Fraction, Δ vs pretreatment / Stroke Volume, Δ vs pretreatment / Cardiac Output / Mean Pulmonary Artery Wedge Pressure / L V End Diastolic Pressure / Mean Pulmonary Artery Pressure / Stroke Volume / L V End Systolic Volume / L V End Diastolic Volume / Mean Aortic Pressure / Heart Rate / Systemic Vascular Resistance / L V Peak + dP/dt: post 3rd inj.; for Cardiac Output: pretreatment 1.81; for Mean Pulmonary Artery Wedge Pressure: pretreatment 9.3; for L V End Diastolic Pressure: pretreatment 13; for Mean Pulmonary Artery Pressure: pretreatment 17; for Stroke Volume: pretreatment 21; for L V End Systolic Volume: pretreatment 43; for L V End Diastolic Volume: pretreatment 64; for Mean Aortic Pressure: pretreatment 75; for Heart Rate: pretreatment 88; for Systemic Vascular Resistance: pretreatment 3391", "description": "An initial study was conducted to assess the effects of Risuteganib administered intravenously at doses of 1.0 mg/kg and 5.0 mg/kg in a dog heart failure model. The subject animals underwent coronary microembolization to induce heart failure as described in Sabbah, H., et al.; Chronic Therapy with Elamipretide (MTP-131), a Novel Mitochondria-Targeting Peptide, Improves Left Ventricular and Mitochondrial Function in Dogs with Advanced Heart Failure; Circ Heart Fail. 2016 February; 9(2): e002206. doi:10.1161/CIRCHEARTFAILURE.115.002206.\nThree (3) dogs were received 1.0 mg/kg Risuteganib every 2 weeks for 6 weeks. After an intervening period of approximately one week, the same three (3) dogs then received 5.0 mg/kg Risuteganib every 2 weeks for 6 additional weeks. Ventriculographic and hemodynamic measurements were made prior to the first intravenous dose of Risuteganib, after the third biweekly 1.0 mg/kg intravenous dose of Risuteganib and again after the third biweekly 5.0 mg/kg intravenous dose of Risuteganib."}, "[5]": {"settings": "1.0 mg/kg IV q 2 weeks for 6 weeks"}, "[6]": {"settings": "5.0 mg/kg IV q 2 weeks for 6 weeks"}}, "note": "Square brackets hold non-standard residues; d marks the D form. Peptide text beside a SMILES is read from it. Cya = N[C@@H](CS(=O)(=O)O)C(=O)O", "data": [{"smiles": "Oc1ccc(O)cc1", "note": "[HQ, hydroquinone, reference compound]", "values": [{"measurement": "Δψm", "setting": "[1]; HQ 160 μM vs control", "value": "significantly decreased"}, {"measurement": "number of genes changed (differential expression)", "setting": "[2]; HQ 250 μM or 300 μM, vs control", "value": "approximately seven thousand"}, {"measurement": "HMOX-1 gene expression increase (RNA-seq)", "setting": "[2]; HQ 250 μM", "value": 618, "unit": "%"}, {"measurement": "HMOX-1 gene expression increase (RNA-seq)", "setting": "[2]; HQ 300 μM", "value": 420, "unit": "%"}, {"measurement": "ROS production", "setting": "[3]", "value": "significantly increased"}]}, {"smiles": "C[C@@H](O)[C@H](NC(=O)[C@H](CS(=O)(=O)O)NC(=O)CNC(=O)[C@H](CCCNC(=N)N)NC(=O)CN)C(=O)N1CCC[C@H]1C(=O)O", "note": "[Risuteganib, Glycyl-L-arginylglycyl-3-sulfo-L-alanyl-L-threonyl-L-proline] (H-GRG[Cya]TP-OH)", "values": [{"measurement": "Δψm (mitochondrial membrane potential)", "setting": "[1]; RSG 0.4 mM co-treatment with HQ 160 μM", "value": "significantly improved HQ-mediated reduction in Δψm"}, {"measurement": "Left Ventricle Ejection Fraction", "setting": "[4]; 1.0 mg/kg IV q 2 weeks for 6 weeks, post 3rd 1.0 mg/kg IV inj.", "value": 37, "unit": "%"}, {"measurement": "Cardiac Output, Δ vs pretreatment", "setting": "[4]; [5]", "value": "Δ = +0.14 L/min"}, {"measurement": "Left Ventricle Ejection Fraction, Δ vs pretreatment", "setting": "[4]; [5]", "value": "Δ = +5%"}, {"measurement": "Stroke Volume, Δ vs pretreatment", "setting": "[4]; [5]", "value": "Δ = +2 mL"}, {"measurement": "Cardiac Output", "setting": "[4]; [5]", "value": 1.95, "unit": "L/min"}, {"measurement": "Mean Pulmonary Artery Wedge Pressure", "setting": "[4]; [5]", "value": 9.0, "unit": "mmHg"}, {"measurement": "L V End Diastolic Pressure", "setting": "[4]; [5]", "value": 13, "unit": "mmHg"}, {"measurement": "Mean Pulmonary Artery Pressure", "setting": "[4]; [5]", "value": 16, "unit": "mmHg"}, {"measurement": "Stroke Volume", "setting": "[4]; [5]", "value": 23, "unit": "mL"}, {"measurement": "L V End Systolic Volume", "setting": "[4]; [5]", "value": 0.04, "unit": "L"}, {"measurement": "L V End Diastolic Volume", "setting": "[4]; [5]", "value": 0.063, "unit": "L"}, {"measurement": "Mean Aortic Pressure", "setting": "[4]; [5]", "value": 71, "unit": "mmHg"}, {"measurement": "Heart Rate", "setting": "[4]; [5]", "value": 86, "unit": "beats/min"}, {"measurement": "Systemic Vascular Resistance", "setting": "[4]; [5]", "value": 2954, "unit": "dynes-sec-cm-5"}, {"measurement": "Left Ventricle Ejection Fraction", "setting": "[4]; 5.0 mg/kg IV q 2 weeks for 6 weeks, post 3rd 5.0 mg/kg IV inj.", "value": 41, "unit": "%"}, {"measurement": "Cardiac Output, Δ vs pretreatment", "setting": "[4]; [6]", "value": "Δ = +0.57 L/min"}, {"measurement": "Left Ventricle Ejection Fraction, Δ vs pretreatment", "setting": "[4]; [6]", "value": "Δ = +9%"}, {"measurement": "Stroke Volume, Δ vs pretreatment", "setting": "[4]; [6]", "value": "Δ = +5 mL"}, {"measurement": "Cardiac Output", "setting": "[4]; [6]", "value": 2.38, "unit": "L/min"}, {"measurement": "Mean Pulmonary Artery Wedge Pressure", "setting": "[4]; [6]", "value": 9.0, "unit": "mmHg"}, {"measurement": "L V End Diastolic Pressure", "setting": "[4]; [6]", "value": 13, "unit": "mmHg"}, {"measurement": "Mean Pulmonary Artery Pressure", "setting": "[4]; [6]", "value": 16, "unit": "mmHg"}, {"measurement": "Stroke Volume", "setting": "[4]; [6]", "value": 27, "unit": "mL"}, {"measurement": "L V End Systolic Volume", "setting": "[4]; [6]", "value": 0.039, "unit": "L"}, {"measurement": "L V End Diastolic Volume", "setting": "[4]; [6]", "value": 0.067, "unit": "L"}, {"measurement": "Mean Aortic Pressure", "setting": "[4]; [6]", "value": 84, "unit": "mmHg"}, {"measurement": "Heart Rate", "setting": "[4]; [6]", "value": 87, "unit": "beats/min"}, {"measurement": "Systemic Vascular Resistance", "setting": "[4]; [6]", "value": 2924, "unit": "dynes-sec-cm-5"}, {"measurement": "L V Peak + dP/dt", "setting": "[4]; first line so headed (r26), 1.0 mg/kg IV q 2 weeks for 6 weeks, pretreatment 1241", "value": 1267, "unit": "mmHg/sec"}, {"measurement": "L V Peak + dP/dt", "setting": "[4]; first line so headed (r26), 5.0 mg/kg IV q 2 weeks for 6 weeks, pretreatment 1241", "value": 1288, "unit": "mmHg/sec"}, {"measurement": "cardiac function", "setting": "[4]; heart failure dogs, 1.0 mg/kg and 5.0 mg/kg intravenously", "value": "improved"}, {"measurement": "L V Peak + dP/dt", "setting": "[4]; second line so headed (r29), 1.0 mg/kg IV q 2 weeks for 6 weeks, pretreatment 1509", "value": 1325, "unit": "mmHg/sec"}, {"measurement": "L V Peak + dP/dt", "setting": "[4]; second line so headed (r29), 5.0 mg/kg IV q 2 weeks for 6 weeks, pretreatment 1509", "value": 1338, "unit": "mmHg/sec"}, {"measurement": "HMOX-1 gene expression increase (RNA-seq)", "setting": "[2]; RSG 0.4 mM co-treatment vs 250 μM HQ alone", "value": 241, "unit": "%"}, {"measurement": "HMOX-1 gene expression increase (RNA-seq)", "setting": "[2]; RSG 0.4 mM co-treatment vs 300 μM HQ alone", "value": 391, "unit": "%"}, {"measurement": "genes regulated (differential expression)", "setting": "[2]; RSG 0.4 mM co-treatment vs HQ alone", "value": "regulated thousands of genes"}, {"measurement": "number of differentially expressed (DE) genes", "setting": "[2]; RSG alone 0.4 mM, vs control", "value": 15, "unit": "genes"}]}]}
